Read-outs that look alike come from different tables or passages of the source.
Tests used:
[1] = type: physicochemical; details: in our experimental conditions
Text: The methods used to prepare the 1-aryl-1H-1,2,3-triazoles and 2-aryl-2H-1,2,3-triazoles (54 examples) involved classical chemical transformations, and all evaluated compounds were from the group’s molecular bank and were present in other published works. […] This information can be important for future studies.

[2] = tested on: knockout of P. falciparum PfSR25; set-up: method as in PMID 28842684; details: knockout versus wild type; cited from earlier work
HEK293 cells = type: cell-based, human; details: 72 h; for survival of HEK293 cells (MTT): 0.0488–50 µM; for toxicity in HEK 293 cells (MTT): at the tested concentrations (0.0488–50 µM)
Procedure: Human Embryonic Kidney Cells (HEK293) were kept in 75 cm^2 culture bottles (Greiner Bio-One) at 37 °C, 5% CO2 containing Dulbecco’s Minimal Essential Medium (DMEM), added with 10% fetal bovine serum, 1% Streptomycin and Penicillin and 3.7 g/L of NaHCO3 (Sigma). Cell passages were performed with trypsin-EDTA (Invitrocell). The number of cells was monitored by counting in a Neubauer chamber.
To evaluate the toxicity of the triazole compounds in mammalian cells, Human Embryonic Kidney cells (HEK293). Cells were plated in flat-bottom 96-well plates at a density of 10^4 cells per well and incubated for 24 h in 150 µL media at 37 °C, 5% CO2. Cells were then treated with different concentrations of each compound, ranging from 0.0488 µM to 50 µM in 200 µL DMEM for 72 h at 37 °C and 5% CO2. Cells treated with DMSO (v/v), with the highest concentration of solvent at 0.25% were used as control. After incubation, 40 µL of MTT reagent (solution 5 mg/mL in PBS) was added to each well, and cells were incubated for further 3 h at 37 °C and 5%CO2 [35]. The media was removed, and 100 µL of DMSO was added in each well. The plates were agitated in a shaker for 10 min to dissolve precipitates. The absorbance was read at 570 nm in a FlexStation 3 (Molecular Devices). Three experiments were performed independently in triplicates.

[3] = target: P. falciparum PfSR25- (knockout strain for the PfSR25 receptor); test: In vitro growth assay with flow cytometry, PfSR25- knockout strain; type: cell-based, Plasmodium falciparum; details: for IC50: 72 h; for IC50 for the knockout strain compared with the 3D7 strain: PfSR25- versus 3D7
Procedure: (§1) Erythrocytes infected with P. falciparum 3D7 and the knockout strain for the PfSR25 receptor (PfSR25-) were kept in 175 cm^2 culture bottles (Greiner Bio-One) containing RPMI 1640 with 0.5% NaHCO3, 0.04% sulfate gentamicin, 0.05% hypoxanthine and supplemented with 0.5% AlbuMAX I (Gibco). The culture bottles were maintained at 37 °C and an atmosphere with 90% N2, 5% O2 and 5% CO2 Parasitemia was determined from a blood smear stained with Panotic Rapid (Laborclin).
(§2) Red blood cells infected with P. falciparum (iRBC) asynchronously with 0.3% initial parasitemia and 1% hematocrit were incubated with different concentrations of compounds ranging from 0.0488 µM to 50 µM, for 72 h at 37 °C under mixture of gases. The control group was treated with solvent Dimethyl Sulfoxide (DMSO) (v/v); with the highest concentration of solvent bring 0.25%.
(§3) Parasitemia was determined from the dot plots (side scatter versus fluorescence) of at least […] acquired on an Accuri C6 flow cytometer (Becton Dickinson). Initial gating was carried out with unstained, uninfected erythrocytes to account for erythrocyte autofluorescence.
(§4) After 72 h, iRBCs were stained with nucleic acid marker SYBR Green I (1X) (Invitrogen) and mitochondria marker based on membrane potential MitoTracker Deep Red (50 nM) (Invitrogen), and were incubated for 20 min. at 37 °C. The final parasitemia was obtained by flow cytometer using a BD Accuri C6 Flow Cytometer, collecting 10^³ cells. Dot plots using FlowJo V10.6.2 software determined Parasitemia. At least three independent experiments were performed in triplicate to calculate the IC50 values for each drug.
We also assessed the role of PfSR25 in terms of its susceptibility to compounds with a better antimalarial activity (9, 13, 19, 21, 22, 24 and 29) and compounds with less activity (21) based on the results obtained with the 3D7 screening. Thus, the tests were carried out like that described above and are represented in Figure 5. However, we used the knockout strain for the receptor-like PfSR25- for the tests.

P. falciparum 3D7 [4] = test: In vitro growth assay with flow cytometry, P. falciparum 3D7; type: cell-based, Plasmodium falciparum; details: P. falciparum 3D7, 72 h, 0.0488–50 µM, ± standard error of the mean, read-out: IC50
Procedure: as §1, §2, §3, §4
In order to identify potential antimalarials present in the library of compounds derived from the 1H-1,2,3-triazoles and 2H-1,2,3-triazoles, we used a culture of P. falciparum (3D7) to perform the screening tests of the compounds. To assess parasitemia at the end of the parasites incubation with the compounds for 72 h, we used a double-label: (1) SYBR Green I to mark DNA and (2) MitoTracker Deep Red as a mitochondria marker. The latter being dependent on the membrane potential, we ensured that only the marking and selection of viable parasites occurred.

P. falciparum W2 = details: cited from earlier work
P. falciparum 3D7 [5] = details: cited from earlier work
P. falciparum D10 = details: cited from earlier work
P. falciparum Dd2 = details: cited from earlier work
[6] = Plasmodium falciparum, 3D7, 72 h

## COc1ccc(-n2cc(/C=N/Nc3ccc(F)cc3)nn2)cc1 [Compound 53, (E)-4-((2-(4-fluorophenyl)hydrazono)methyl)-1-(4-methoxyphenyl)-1H-1,2,3-triazole]
[1]
  solubilization: weren’t able to be solubilized
other
  melting point: 195 to 197 °C

## Clc1ccc2c(N3CCN(CCCN4CCN(c5ccnc6cc(Cl)ccc56)CC4)CC3)ccnc2c1 [piperaquine]
[2]
  susceptibility of PfSR25 knockout parasite to the drug: more susceptible

## (E)-1-(3,5-dichlorophenyl)-4-((2-(2,5-dimethylphenyl)hydrazono)methyl)-1H-1,2,3-triazole [Compound 22]
HEK293 cells
  survival of HEK293 cells (MTT): above 80%
  toxicity in HEK 293 cells (MTT): no toxicity
[3]; PfSR25- knockout strain, ± standard error of the mean, read-out: IC50
  IC50: 4.41 ± 0.6 µM
[3]
  IC50 for the knockout strain compared with the 3D7 strain: lower IC50 values for the knockout strain
P. falciparum 3D7 [4]
  IC50: 5.56 ± 0.47 µM

## Clc1ccc(-n2cc(/C=N/Nc3cc(Cl)ccc3Cl)nn2)cc1 [Compound 20, (E)-1-(4-chlorophenyl)-4-((2-(2,5-dichlorophenyl)hydrazono)methyl)-1H-1,2,3-triazole]
P. falciparum 3D7 [4]; [6]
  IC50: 13.6 ± 1.2 µM
other
  melting point: 181 to 182 °C

## COc1ccc(-n2cc(/C=N/Nc3ccc(Br)cc3)nn2)cc1 [Compound 52, (E)-4-((2-(4-bromophenyl)hydrazono)methyl)-1-(4-methoxyphenyl)-1H-1,2,3-triazole]
[1]
  solubilization: weren’t able to be solubilized
other
  melting point: 230 to 231 °C

## ON=Cc1cn(-c2ccc(Cl)cc2)nn1 [Compound 13]
HEK293 cells
  survival of HEK293 cells (MTT): above 80%
  toxicity in HEK 293 cells (MTT): no toxicity
[3]
  IC50 for the knockout strain compared with the 3D7 strain: lower IC50 values for the knockout strain
[3]; Plasmodium falciparum
  IC50: 0.89 ± 0.39 µM
P. falciparum 3D7 [4]
  IC50: 6.67 ± 1.86 µM
P. falciparum 3D7 [4]; [6]
  IC50: < 10 µM

## COc1cc([N+](=O)[O-])ccc1-n1cc(COC2=C(CC=C(C)C)C(=O)C=C(C)C2=O)nn1 [V]
P. falciparum W2
  IC50: 4.1 µM

## CCOC(=O)C1CN(Cc2c[nH]nn2)c2cc(Cl)c(F)cc2C1=O (stereo not shown) [III]
P. falciparum 3D7 [5]
  IC50: 1.33 µM

## CN(C)C(Cn1cc(-c2ccccc2)nn1)NCc1ccccc1Cl (stereo not shown) [II]
P. falciparum D10
  IC50: 11.3 µM
P. falciparum Dd2
  IC50: 13 µM

## O=C(Cn1cc(CNc2ccnc3cc(Cl)ccc23)nn1)N1CCCCC1 [IV]
P. falciparum D10
  IC50: 0.0136 µM
P. falciparum Dd2
  IC50: 0.0434 µM

## COc1ccc(-n2cc(/C=N/Nc3cc(C)ccc3C)nn2)cc1 [Compound 54, (E)-4-((2-(2,5-dimethylphenyl)hydrazono)methyl)-1-(4-methoxyphenyl)-1H-1,2,3-triazole]
[1]
  solubilization: weren’t able to be solubilized

## Clc1ccc(Cl)c(N/N=C/c2cn(-c3cc(Cl)ccc3Cl)nn2)c1 [Compound 26, (E)-1-(2,5-dichlorophenyl)-4-((2-(2,5-dichlorophenyl)hydrazono)methyl)-1H-1,2,3-triazole]
P. falciparum 3D7 [4]
  IC50: 9.4 ± 2.87 µM
P. falciparum 3D7 [4]; [6]
  IC50: < 10 µM
other
  melting point: 200 to 201 °C

## COc1ccc(-n2cc(/C=N/Nc3ccccc3)nn2)cc1 [Compound 24]
HEK293 cells
  survival of HEK293 cells (MTT): above 80%
  toxicity in HEK 293 cells (MTT): no toxicity
[3]
  IC50 for the knockout strain compared with the 3D7 strain: lower IC50 values for the knockout strain
[3]; Plasmodium falciparum
  IC50: 0.99 ± 0.25 µM

## Fc1ccc(N/N=C/c2cn(-c3ccc(Cl)cc3)nn2)cc1 [Compound 19]
HEK293 cells
  survival of HEK293 cells (MTT): above 80%
  toxicity in HEK 293 cells (MTT): no toxicity
[3]
  IC50 for the knockout strain compared with the 3D7 strain: lower IC50 values for the knockout strain
[3]; Plasmodium falciparum
  IC50: 2.24 ± 0.77 µM
P. falciparum 3D7 [4]
  IC50: 8.45 ± 2.25 µM
P. falciparum 3D7 [4]; [6]
  IC50: < 10 µM

## CCCCCCCCCC(=O)OCc1cn(-c2ccc(Cl)cc2)nn1 [Compound 9]
HEK293 cells
  survival of HEK293 cells (MTT): above 80%
  toxicity in HEK 293 cells (MTT): no toxicity
[3]
  IC50 for the knockout strain compared with the 3D7 strain: lower IC50 values for the knockout strain
[3]; Plasmodium falciparum
  IC50: 1.55 ± 0.55 µM

## O=C(N/N=C/c1cn(-c2cc(Cl)cc(Cl)c2)nn1)c1ccncc1 [Compound 29, (E)-N′-((1-(3,5-dichlorophenyl)-1H-1,2,3-triazol-4-yl)methylene)isonicotinohydrazide]
HEK293 cells
  survival of HEK293 cells (MTT): above 80%
  toxicity in HEK 293 cells (MTT): no toxicity
[3]; Plasmodium falciparum
  IC50: 9.91 ± 2.94 µM
P. falciparum 3D7 [4]
  IC50: 6.96 ± 1.44 µM
P. falciparum 3D7 [4]; [6]
  IC50: < 10 µM

## O=[N+]([O-])c1ccc(-n2cc(COc3ccc4cc(Br)ccc4c3)nn2)cc1 [I]
P. falciparum 3D7 [5]
  IC50: 14.7 µM
P. falciparum Dd2
  IC50: 13.6 µM

— publication PMC7465636 (Biomolecules, 2020)
